US12257282B2, “Mixtures and formulations” (CAMURUS AB, priority 2016, dated 2025)
Numbered stars: 1 amine (or outer) side, 2 acyl side, 3 side chain; on linkers, the order of the positions; unused ones are H or OH. Square brackets hold non-standard residues; d marks the D form. Side chains are listed from the residue outwards. Peptide text beside a SMILES is read from it. * marks the point of attachment. Ethylenediamine = C(CN[*:2])N[*:1]; Hyp = O=C(O)[C@@H]1C[C@@H](O)CN1; Phg = N[C@H](C(=O)O)c1ccccc1; CO = O=C([*:1])[*:2]; Bn = c1ccc(C*)cc1

Key:
[1] = DTPA solubility in EtOH/PG as a function of ETA/DTPA molar ratio; assay type: physicochemical
[2] = Octreotide stability in lipid formulations (assay by gradient HPLC-UV after storage); conditions: for effect on octreotide stability compared to the reference formulation (FIG. 7): alkylamine used to solubilize 100 ppm EDTA, alkylamine:EDTA 4:1; for effect on octreotide stability compared to the reference formulation (FIG. 7) / effect on OCT(Cl) stability vs. the reference formulation (FIG. 6): up to two months; for effect on OCT(Cl) stability vs. the reference formulation (FIG. 6): additive mixtures in EtOH/PG filtered to remove non-dissolved particles, 5 ppm Fe3+
[3] = placebo SPC/GDO 50/50 and 35/65 with EtOH; 100 ppm EDTA; with or without 5 ppm Fe3+; 60° C./ambient RH and 40° C./75% RH
Protocol: Oxygen concentration in the vial headspace was measured using a PC-controlled PreSens Microx TX3 micro fiber optic oxygen transmitter equipped with a needle-type optical oxygen microsensor (NTH, 140 μm flat broken tip). Measurements were performed by penetrating the oxygen microsensor through the vial rubber stopper into the vial headspace and measuring the oxygen concentration until a stable readout was obtained (about 1 min).
Some formulations also contained 5 ppm Fe^3+ to enhance the oxidative stress conditions (Table 10).

[4] = 2.00 wt % SOM(Cl) in SPC/GDO/EtOH/PG; 100 ppm EDTA with ETA; 40° C./75% RH and 25° C./60% RH, up to three months
[5] = cited from earlier work
[6] = test system: SSTR1-SSTRS; conditions: cited from earlier work
[7] = single subcutaneous dose, human plasma; cited from earlier work
[8] = 0.38 wt % EDTA in EtOH/PG (1/1 wt/wt)

## O=C(O)CN(CCN(CC(=O)O)CC(=O)O)CCN(CC(=O)O)CC(=O)O [DTPA, Diethylenetriaminepentaacetic (pentetic) acid]
[1]; 0.08 wt % DTPA
  DTPA solubility in EtOH/PG without using ETA: not soluble
[1]; 0.08 wt % DTPA in EtOH/PG (50/50 w/w)
  required minimum amount of ETA needed to solubilize DTPA: about 4.3 mol of ETA per 1 mol of DTPA

## OCCNCCO [DiETA, Diethanolamine]
[2]; 40° C./75% RH
  effect on octreotide stability compared to the reference formulation (FIG. 7): enhanced the peptide stability to a similar high degree

## O.O.O=C(O)CN(CCN(CC(=O)O)CC(=O)O)CC(=O)O.[Na].[Na] [EDTA(Na), Ethylenediaminetetraacetic acid disodium dihydrate]
[2]; 40° C./75% RH
  effect on OCT(Cl) stability vs. the reference formulation (FIG. 6): negative effect

## O=C(O)CN(CCN(CC(=O)O)CC(=O)O)CC(=O)O [EDTA, Ethylenediaminetetraacetic (edetic) acid]
[3]
  effect on consumption of headspace oxygen (lipid oxidation, FIG. 15-18): drastically reduce consumption of oxygen
[4]
  effect on SOM stability (SOM assay, FIG. 9): dramatically enhanced the peptide stability
[2]; 2.27 wt % OCT(Cl) in SPC/GDO/EtOH/PG, 0-750 ppm EDTA with ETA, 40° C./75% RH, 0, 1, 2 months, air headspace
  effect on octreotide stability vs. reference formulation (FIG. 2): dramatically enhanced the peptide stability
[2]; 2.27 wt % OCT(Cl) in SPC/GDO/EtOH/PG, 40° C./75% RH
  EDTA concentration interval of maximum stabilization effect: 50-250 ppm
[2]; 2.34 wt % OCT(Cl) in SPC/GDO/EtOH/PG, 100 ppm EDTA with 100 ppm ETA vs none, […], up to three months, air headspace
  effect on octreotide stability (octreotide assay, FIG. 1): dramatically enhanced the peptide stability
[2]; 100 ppm EDTA with ETA, pre-filled glass syringes, 25° C./60% RH, up to twelve months
  effect on long-term octreotide stability (FIG. 3): significantly enhanced the long-term peptide stability
[2]; 40° C./75% RH
  effect on OCT(Cl) stability vs. the reference formulation (FIG. 6): negative effect

## NCCO [ETA, Ethanolamine]
[2]; 40° C./75% RH
  effect on octreotide stability compared to the reference formulation (FIG. 7): enhanced the peptide stability to a similar high degree

## C[C@@H](O)[C@@H]1NC(=O)[C@H](CCCCN)NC(=O)[C@@H](Cc2c[nH]c3ccccc23)NC(=O)[C@H](Cc2ccccc2)NC(=O)[C@@H](NC(=O)[C@H](N)Cc2ccccc2)CSSC[C@@H](C(=O)N[C@H](CO)[C@@H](C)O)NC1=O [Octreotide, D-Phe-Cys-Phe-D-Trp-Lys-Thr-Cys-Thr-ol (2-7 disulphide bridge)]
[5]; in vivo
  terminal half-life: around 1.7 hours
[6]
  selectivity for SSTR2 and SSTRS: high selectivity

## NCCCC[C@@H]1NC(=O)[C@@H](Cc2c[nH]c3ccccc23)NC(=O)[C@H](c2ccccc2)NC(=O)[C@@H]2C[C@@H](OC(=O)NCCN)CN2C(=O)[C@H](Cc2ccccc2)NC(=O)[C@H](Cc2ccc(OCc3ccccc3)cc2)NC1=O [pasireotide] (cyclo([Hyp]([CO-Ethylenediamine])[Phg][dW]KY(Bn)F))
[7]
  initial half-life following the peak: 2 to 3 h

## NC(CO)CO [serinol]
[8]
  required minimum amount of alkylamine needed to solubilize EDTA: about 4 mol per 1 mol of EDTA

## Ala-Gly-Cys-Lys-Asn-Phe-Phe-Trp-Lys-Thr-Phe-Thr-Ser-Cys [SST-14]
[5]; natural SST-14
  biological half-life: 1-3 minutes
[6]; SSTR1-SSTRS
  affinity of the five SSTR types: equally high affinity
